Results: patent US6632626B1, “Methods of assaying farnesyl transferase” (Board of Regents, The University of Texas System, priority 1990, dated 2003)
Entries after “also recorded” stand apart in the source; their conditions may differ. Residues, ends and D or L forms follow the SMILES beside them. No end group written: not given here.

Key:
Format in all cases: biochemical
[1] = molecular target: T1, rat brain farnesyl:protein transferase (Rattus norvegicus, UniProt Q02293+Q04631); test: Farnesyl:protein transferase inhibition: competition with p21H-ras for [3H]farnesyl from [3H]FPP, partially purified enzyme, TCA filter assay
T1 construct: Brains from 50 male Sprague-Dawley rats (100-150 g) were homogenized; from tissue
Procedure: (§1) Farnesyl:protein transferase activity was determined by measuring the amount of ^3H-farnesol transferred from ^3H]farnesyl pyrophosphate ([^3H]FPP) to p21^H-ras protein. The standard reaction mixture contained the following concentrations of components in a final volume of 25 μl: 50 mM Tris-chloride (pH 7.5), 50 μM ZnCl2, 20 mM KCl, 1 mM DTT, and 40 μM p21^H-ras. The mixture also contained 10 pmoles of [^3H]FPP (−30,000 dpm/pmol) and 1.8-3.5 μg of partially purified farnesyl:protein transferase (see below). After incubation for 1 h at 37° C. in 12×75-mm borosilicate tubes, the reaction was stopped by addition of 0.5 ml of 4% SDS and then 0.5 ml of 30% trichloroacetic acid (TCA).
The tubes were vortexed and left on ice for 45-60 min, after which 2 ml of a 6% TCA/2% SDS solution were added. […] The tubes were rinsed twice with 2 ml of the same solution, and each filter was washed five times with 2 ml of 6% TCA, dried, and counted in a scintillation counter. One unit of activity is defined as the amount of enzyme that transfers 1 pmol of [^3H]farnesol from [^3H]FPP into acid-precipitable p21^H-ras per hour under the standard conditions.
In the enzyme characterization experiments of FIGS. 1-4, 8, and 9, a partially purified fraction of farnesyl:protein transferase was used. […] The column was equilibrated with 50 mM Tris-chloride (pH 7.5) containing 1 mM DTT, 0.2 M NaCl, 20 μM ZnCl2, and 0.2% octyl-β-glucopyranoside and eluted with the same buffer at a flow rate of 15 ml/h.
This blank value was subtracted before calculating “% of control” values.

[2] = molecular target: T2, purified farnesyl:protein transferase (Rattus norvegicus, UniProt Q02293+Q04631); test: Farnesylation of tetrapeptides by purified farnesyl:protein transferase, thin layer chromatography (substrate or pure inhibitor); conditions: 3.6 μM tetrapeptide, purified enzyme (FIG. 15)
T2 construct: Brains from 50 male Sprague-Dawley rats (100-150 g) were homogenized; from tissue
Procedure: FIG. 15. […] The standard assay mixture (25 μl) contained 17 pmol [^3H]FPP (44,000 dpm/pmol), 5 ng of purified farnesyl:protein transferase, 0.2% (w/v) octyl-β-D-glucoside, and 3.6 μM of the indicated tetrapeptide. After incubation for 15 min at 37° C., the entire reaction mixture was subjected to thin layer chromatography for 4 h on Polygram SIL G sheet (Brinkmann Instruments) in a solvent system containing N-propanol/concentrated NH4OH/water (6:3:1). The TLC sheet was then dried, sprayed with ENHANCE Spray (Dupont-New England Nuclear) and exposed to Kodak X-OMAT AR Film XAR-5 for 25 h at −70° C.

[3] = molecular target: T3, partially purified rat brain farnesyl:protein transferase (Rattus norvegicus, UniProt Q02293+Q04631); test: Substrate saturation of farnesyl:protein transferase (FIG. 2); conditions: 1 h at 37° C.
T3 construct: Brains from 50 male Sprague-Dawley rats (100-150 g) were homogenized; from tissue
Procedure: FIG. 2. Substrate Saturation Curves for Farnesyl:Protein Transferase. Panel A, each standard reaction mixture contained 1.8 μg of partially purified farnesyl transferase, 40 μg p21^H-ras, [^3H]FPP (250,000 dpm); and varying amounts of unlabeled FPP to give the indicated final concentration of [^3H]FPP. […] For both panels, assays were carried out in duplicate for 1 h at 37° C., and TCA-precipitable radioactivity was measured as described in the Example.
as §1, with “After incubation for 1 h at 37° C. in 12×75-mm borosilicate tubes, the reaction was stopped by addition of 0.5 ml of 4% SDS and then 0.5 ml of 30% trichloroacetic acid (TCA).” left out
The tubes were vortexed and left on ice for 45-60 min, after which 2 ml of a 6% TCA/2% SDS solution were added. […] The tubes were rinsed twice with 2 ml of the same solution, and each filter was washed five times with 2 ml of 6% TCA, dried, and counted in a scintillation counter. […]

pure inhibitor or substrate for farnesylation [2] | concentration giving half-maximal reaction velocity [3] | Molecule | inhibitory activity against farnesylation of p21H-ras (in words) [1]
Farnesylation | – | CC[C@H](C)[C@H](NC(=O)[C@@H](NC(=O)[C@@H](N)CS)C(C)C)C(=O)N[C@@H](CCSC)C(=O)O [CVIM] (H-CVIM-OH; N-terminus and C-terminus assumed) | sufficient for competition
not a “pure” inhibitor | – | CFVM: related peptide, inhibitory through action as a substrate for farnesylation (CVFM) | –

More lines, now with the values behind:

Molecule | pure inhibitor or substrate for farnesylation [2] | concentration giving half-maximal reaction velocity [3] | inhibitory activity against farnesylation of p21H-ras (in words) [1]
CC(C)=CCC/C(C)=C/CC/C(C)=C/COP(=O)(O)OP(=O)(O)O [[^3H]farnesyl pyrophosphate, [1-^3H]Farnesyl pyrophosphate] | – | approximately 0.5 μM | –
S-acetoamidated CVIM: CVIM alkylated on cysteine with iodoacetamide (C(acetamide)VIM) | – | – | appears to lose much of its inhibitory activity
TKVCIM: hexapeptide with cysteine transposed from fourth to third position from the COOH-terminus | – | – | severely reduced inhibitory activity; also recorded: inhibitory activity of the peptide is reversed
